Source: US9809552B2, “Piperazine derivatives as FASN inhibitors” (Merck Patent GmbH, priority 2013, dated 2017)

Target: T1, human recombinant full-length fatty acid synthase (FASN) (Homo sapiens, UniProt P49327)
T1 construct: human recombinant full-length fatty acid synthase (produced in-house in SF9 cells); made in house; host or cells: SF9 insect cells
Test: Biochemical activity testing of human fatty acid synthase FASN (NADPH fluorescence intensity enzyme assay)
Conditions: 15 min pre-incubation, 30 min reaction at room temperature
Source text: Biochemical activity testing of human fatty acid synthase FASN
Fatty acid synthase FASN is a multifunctional enzyme with seven catalytic activities thereby synthesising long chain fatty acids especially palmitoyl-CoA in the presence of co-factor NADPH starting from the substrates acetyl-CoA and malonyl-CoA. The reductive synthesis is realized by the oxidation of NADPH to NADP. Since NADPH has a high fluorescence intensity quantum yield compared to NADP with excitation at 340 nm and emission at 460 nm, the reaction can be monitored via the decrease in fluorescence intensity. The biochemical FASN activity testing was performed as 384 well two-time-point kinetic fluorescence intensity assay format in Greiner low volume medium binding 384-well black microtiter plates in a total assay volume of 8 μl and was used for high throughput screen. In each well 3 μl 40 nM human recombinant full-length fatty acid synthase (produced in-house in SF9 cells) were dispensed in the following assay buffer: 50 mM potassium phosphate buffer pH 7.0, 0.005% (w/v) BSA, 2 mM Glutathione, 0.02% Tween-20. Then 2 μl of 200 μM NADPH in assay buffer were added, followed by the addition of the test compounds in 10 dilution concentrations starting with 30 μM (final concentration) to get a final DMSO content of 1% (v/v). The mixture was incubated for at least 15 min at room temperature. After the pre-incubation the enzymatic reaction was started by the addition of 2 μl substrate solution (80 μM acetyl-CoA, 240 μM malonyl-CoA). A first fluorescence intensity measurement (time point one) was performed with an Envision multimode reader (Perkin Elmer LAS Germany GmbH) at excitation wavelength 340 nm (lamp mode) and emission wavelength 460 nm. The reaction was incubated for 30 minutes at room temperature. After this the fluorescence intensity was measured again in the Envision using the same parameters as described above (second time point measurement). The data were analysed by subtracting the first time point measurement value from the second time point measurement value (after the enzymatic reaction). The differences of the emission signals were determined. These reflect directly the conversion rate of NADPH. The full value used was the inhibitor-free reaction. A pharmacological zero value was used like GSK837149A (Sigma-Aldrich) in a final concentration of 5-10 μM. The inhibitory values (IC50) were determined using either the program Symyx Assay Explorer® or Condosseo® from GeneData.

T1 sequence (P49327 whole entry): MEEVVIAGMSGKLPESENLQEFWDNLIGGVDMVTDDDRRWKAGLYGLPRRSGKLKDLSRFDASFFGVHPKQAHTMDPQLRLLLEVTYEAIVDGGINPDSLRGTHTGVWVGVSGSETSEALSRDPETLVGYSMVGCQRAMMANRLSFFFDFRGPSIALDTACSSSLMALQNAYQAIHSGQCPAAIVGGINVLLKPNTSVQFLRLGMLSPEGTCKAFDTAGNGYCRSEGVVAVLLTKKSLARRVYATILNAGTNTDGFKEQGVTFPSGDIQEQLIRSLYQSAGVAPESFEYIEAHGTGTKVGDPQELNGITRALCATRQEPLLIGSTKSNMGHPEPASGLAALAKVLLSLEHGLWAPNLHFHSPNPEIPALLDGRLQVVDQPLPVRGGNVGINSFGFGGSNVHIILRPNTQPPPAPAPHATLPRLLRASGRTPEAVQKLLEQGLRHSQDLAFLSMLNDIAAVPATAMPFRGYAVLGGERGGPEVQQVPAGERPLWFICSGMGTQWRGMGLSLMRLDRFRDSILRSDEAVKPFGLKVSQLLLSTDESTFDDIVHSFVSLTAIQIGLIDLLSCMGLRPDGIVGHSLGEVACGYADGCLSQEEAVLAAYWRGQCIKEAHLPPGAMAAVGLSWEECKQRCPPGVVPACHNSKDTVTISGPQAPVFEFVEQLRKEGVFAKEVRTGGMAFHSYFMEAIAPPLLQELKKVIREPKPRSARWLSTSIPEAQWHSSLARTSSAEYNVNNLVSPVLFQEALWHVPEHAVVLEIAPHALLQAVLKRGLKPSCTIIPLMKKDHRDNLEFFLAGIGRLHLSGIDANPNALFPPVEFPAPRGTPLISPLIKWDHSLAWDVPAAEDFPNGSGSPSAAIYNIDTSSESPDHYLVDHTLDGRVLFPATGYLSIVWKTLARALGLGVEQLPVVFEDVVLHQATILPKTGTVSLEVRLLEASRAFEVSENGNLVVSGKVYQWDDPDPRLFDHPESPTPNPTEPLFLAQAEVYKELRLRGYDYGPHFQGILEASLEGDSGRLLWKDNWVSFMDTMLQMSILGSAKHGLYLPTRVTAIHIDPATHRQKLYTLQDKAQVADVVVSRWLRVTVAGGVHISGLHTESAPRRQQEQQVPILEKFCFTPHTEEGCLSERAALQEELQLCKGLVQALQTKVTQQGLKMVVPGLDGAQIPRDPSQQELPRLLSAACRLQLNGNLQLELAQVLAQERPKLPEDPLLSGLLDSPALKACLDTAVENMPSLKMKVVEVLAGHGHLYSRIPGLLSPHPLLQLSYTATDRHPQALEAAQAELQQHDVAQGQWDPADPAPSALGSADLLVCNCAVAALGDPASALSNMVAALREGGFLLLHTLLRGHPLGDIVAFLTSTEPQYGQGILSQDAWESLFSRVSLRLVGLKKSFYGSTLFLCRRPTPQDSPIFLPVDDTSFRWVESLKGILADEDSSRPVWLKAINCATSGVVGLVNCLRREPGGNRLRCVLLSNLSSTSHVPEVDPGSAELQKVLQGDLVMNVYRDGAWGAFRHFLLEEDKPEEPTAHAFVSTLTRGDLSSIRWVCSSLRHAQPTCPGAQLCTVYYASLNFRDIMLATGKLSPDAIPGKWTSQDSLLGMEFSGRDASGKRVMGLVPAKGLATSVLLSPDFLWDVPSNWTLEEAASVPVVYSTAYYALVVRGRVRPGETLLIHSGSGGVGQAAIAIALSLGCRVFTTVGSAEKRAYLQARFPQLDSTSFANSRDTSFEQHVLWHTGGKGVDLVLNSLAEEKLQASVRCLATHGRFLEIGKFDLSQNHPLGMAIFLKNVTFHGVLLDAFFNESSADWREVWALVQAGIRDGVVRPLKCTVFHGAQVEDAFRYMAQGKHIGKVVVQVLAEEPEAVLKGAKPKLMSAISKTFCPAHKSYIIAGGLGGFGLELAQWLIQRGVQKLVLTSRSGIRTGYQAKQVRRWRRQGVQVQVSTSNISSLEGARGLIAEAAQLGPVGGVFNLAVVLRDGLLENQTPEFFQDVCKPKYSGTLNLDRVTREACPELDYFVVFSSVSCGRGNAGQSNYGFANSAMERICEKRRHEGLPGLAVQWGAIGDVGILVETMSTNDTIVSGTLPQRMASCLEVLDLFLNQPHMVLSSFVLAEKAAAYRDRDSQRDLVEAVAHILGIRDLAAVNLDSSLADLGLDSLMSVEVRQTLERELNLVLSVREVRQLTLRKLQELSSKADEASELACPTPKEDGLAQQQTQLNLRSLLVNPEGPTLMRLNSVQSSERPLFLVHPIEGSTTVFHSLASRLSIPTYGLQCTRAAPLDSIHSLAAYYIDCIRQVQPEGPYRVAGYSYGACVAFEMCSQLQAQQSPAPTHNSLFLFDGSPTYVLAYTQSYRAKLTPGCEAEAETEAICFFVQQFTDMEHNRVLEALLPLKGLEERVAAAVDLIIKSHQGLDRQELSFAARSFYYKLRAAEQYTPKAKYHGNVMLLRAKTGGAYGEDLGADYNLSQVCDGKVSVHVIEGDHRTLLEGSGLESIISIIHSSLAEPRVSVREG

Row | Structure (SMILES) | IC50
1 | CCC(=O)N1CCN(C(=O)c2ccc(-c3ccc4cnccc4c3)cc2)CC1 [Compound A1, 1-[4-(4-isoquinolin-6-yl-benzoyl)-piperazin-1-yl]-propan-1-one] | < 300 nM
2 | CC(=O)N1CCN(C(=O)c2ccc(-c3ccc4cnccc4c3)cc2)CC1 [Compound A2, 1-[4-(4-isoquinolin-6-yl-benzoyl)-piperazin-1-yl]ethanone] | 300 to 3000 nM
3 | O=C(c1ccc(-c2ccc3cnccc3c2)cc1)N1CCN(C(=O)C2CC2)CC1 [Compound A3, (4-cyclopropanecarbonyl-piperazin-1-yl)-(4-isoquinolin-6-yl-phenyl)-methanone] | < 300 nM
4 | CCCC(=O)N1CCN(C(=O)c2ccc(-c3ccc4cnc(OC)cc4c3)cc2)CC1 [Compound A4, 1-{4-[4-(3-methoxy-isoquinolin-6-yl)-benzoyl]-piperazin-1-yl}-butan-1-one] | 300 to 3000 nM
5 | CCCCC(=O)N1CCN(C(=O)c2ccc(-c3ccc4cnccc4c3)cc2)CC1 [Compound A5, 1-[4-(4-isoquinolin-6-yl-benzoyl)-piperazin-1-yl]-pentan-1-one] | < 300 nM
6 | CCCC(=O)N1CCN(C(=O)c2ccc(-c3ccc4cnccc4c3)cc2)CC1 [Compound A6, 1-[4-(4-isoquinolin-6-yl-benzoyl)-piperazin-1-yl]-butan-1-one] | < 300 nM
7 | CCC(=O)N1CCN(C(=O)c2ccc(-c3ccc4c[n+]([O-])ccc4c3)cc2)CC1 [Compound A7, 1-{4-[4-(2-oxy-isoquinolin-6-yl)-benzoyl]-piperazin-1-yl}-propan-1-one] | < 300 nM
